Experimental findings from PubChem BioAssay (NCI) are described below.

Several values for one entry are separate records, joined by “and”; a condition that tells them apart may be missing. Identical values can stand only once.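 Briefly, cells in 96-well plates were exposed to five compound concentrations for 48 h, and endpoints were estimated by linear interpolation. Abbreviation: GI50, concentration required for 50% inhibition of growth. TGI denotes the concentration required for complete inhibition of growth.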

Holding throughout (assay): growth of human tumour cells (NCI), 48 h
Experiment [1] relates to EKVX NSCLC.
The test system of experiment [2] is SK-OV-3 ovarian.
Experiment [3] has as its system CCRF-CEM leukemia.
The subject of experiment [4] is OVCAR-4 ovarian.
For experiment [5], the system named is SN12C renal.
In experiment [6] the test system is SF-268 CNS.
Experiment [7] deals with A498 renal.
The subject of experiment [8] is UACC-257 melanoma.
For experiment [9], the system named is MDA-MB-231 breast.

On to `N#Cc1ccccc1Sc1ccccc1N`, for which the TGI in [1], in experiment [2], in experiment [3], in [4], in experiment [5] and in experiment [6] was over 100 µM throughout. In addition, the TGI in experiment [7] and in experiment [8] was over 100 µM in each case.
Take `O=C1C=CC2(O)OCC3C=C4O[C@@H]5OC6(CCCCC6)O[C@@H]5C4[C@@H]2[C@@H]13` (stereo partly specified): the TGI is 78.7 µM in experiment [1]; over 100 µM in experiment [2]; 45.8 µM in experiment [3]; 59.9 µM in [4]; over 100 µM in experiment [5]; over 100 µM in [6]. The figures for the TGI in experiment [7] and in experiment [8] were over 100 µM and 35 µM, respectively.
In the case of `CCOC(=O)C1=C(C)N(NC(N)=O)C2(N)N(NC(N)=O)C(C)=C(C(=O)OCC)C12C#N` (stereo unspecified), the TGI in [1], in experiment [2], in experiment [4], in [5], in [6] and in [7] was over 100 µM in each case. The compound also yielded a TGI in experiment [8] of over 100 µM.
With `COc1ccccc1/C=C(\NC(=O)c1ccccc1)c1nc2ccc(Cl)cc2[nH]1`, the TGI in experiment [1] was 78.7 µM; in experiment [2], 84 µM; in experiment [3], over 100 µM; in experiment [4] it was over 100 µM; in experiment [5], over 100 µM; in [6], over 100 µM. For the same compound, the TGI was 80.9 µM in experiment [7] and over 100 µM in experiment [8].
On to `Cc1ccc(-n2nc(C(OC3OC(CO)C(O)C(O)C3O)C(O)CO)c3nc4cc(C)c(C)cc4nc32)cc1` (stereo unspecified), for which the TGI in experiment [1], in experiment [2], in experiment [3], in experiment [4], in [5] and in experiment [6] was over 100 µM throughout. For the same compound, the TGI in [7] and in experiment [8] was over 100 µM throughout.
`CC(C)N(C(=O)C12C3C4C1C1C4(C#N)C3C12C(=O)O)C(C)C` (stereo unspecified): the TGI was over 100 µM in [1]; over 100 µM in experiment [2]; over 82 µM in [3]; over 100 µM in experiment [4]; over 100 µM in experiment [5]; over 100 µM in [6]. In addition, the TGI in [7] and in experiment [8] was over 100 µM in each case.
Take `CN1CCCc2nc3ccccc3n2C1`: the TGI in experiment [1], in experiment [2], in [3], in [4], in experiment [5] and in experiment [6] was over 100 µM throughout. Also, the TGI in experiment [7] and in experiment [8] was over 100 µM in each case.
Regarding `O=c1c2ccccc2nc(-c2cccc(Cl)c2)n1NC1OC(CO)C(O)C(O)C1O` (stereo unspecified), the TGI in [1], in experiment [2], in [3], in [4], in experiment [5] and in experiment [6] was over 100 µM each time. In addition, the TGI in experiment [7] and in experiment [8] was over 100 µM in each case.
For the compound `C[n+]1cn(CC(=O)c2ccccc2)c(C(N)=O)c1N`, the TGI in experiment [1], in [2], in experiment [3], in experiment [4], in [5] and in [6] was over 100 µM throughout. Also, the TGI in experiment [7] and in [8] was over 100 µM each time.
For `CCCCCCCCCC1CC(=O)OC23CCCC(=O)C12O3` (stereo unspecified), the TGI in experiment [1], in experiment [2], in experiment [3], in experiment [4], in [5] and in experiment [6] was over 100 µM in each case. The TGI in experiment [7] and in experiment [8] was over 100 µM throughout.
For the compound `C=C1C(=O)O[C@@H]2C[C@@]3(C)[C@H](O)CCC(=C)[C@@H]3C[C@H]12`, the TGI in experiment [1] was 29.7 µM; in experiment [2], 52.6 µM; in experiment [3], 14.1 µM; in experiment [4], 26.7 µM; in experiment [5], 23.2 µM; in experiment [6], 34.9 µM.
Take `Cc1nc2sccn2c1C(=O)NNC(N)=S`: the TGI in experiment [1], in experiment [2], in [3], in experiment [5], in experiment [6] and in experiment [8] was over 100 µM each time.
As for `CC(=O)C1(C(=O)C(=[N+]=[N-])S(=O)(=O)c2ccccc2)CC1`, the TGI in experiment [9], in experiment [1], in experiment [3], in [5], in experiment [6] and in experiment [8] was over 100 µM throughout.
`OC1=CN=C(c2ccccc2)Oc2ccccc21`: the TGI in [1], in experiment [2], in experiment [3], in experiment [4], in experiment [5] and in [6] was over 100 µM in each case. Further, the TGI in experiment [7] and in experiment [8] was over 100 µM each time.
Take `COc1cccc(-c2cc(=O)c3cc(N4CCN(C)CC4)ccc3[nH]2)c1`: the GI50 was 2.24 µM in [9]; 2.96 µM in experiment [1]; 3.84 µM in [2]; 0.598 µM in experiment [3]; 10.6 µM in [4]; 4.68 µM in [5]. The GI50 in [6] was 4.28 µM. In addition, the TGI was 9.89 µM and 7.13 µM in [9]; 9.29 µM and 87.2 µM in experiment [2]; 5.89 µM in experiment [3]; over 100 µM in experiment [4]; over 100 µM in experiment [5]; over 100 µM in experiment [6]. Moreover, the TGI in [7] was found to be 5.32 µM.
`O=C(Nc1ccccc1C(=O)NC(=O)c1ccccc1NC(=O)c1ccccc1)c1ccccc1`: the TGI in experiment [1] is 28.3 µM; in experiment [3], 16.4 µM; in [4], 18 µM; in experiment [5], 17.2 µM; in [6], 22.2 µM; in experiment [7], 33.3 µM. Also, the TGI in experiment [8] amounted to 4.94 µM.
